Assay results taken from patent US20240209038A1, “TARGETING PIEZO1 TO TREAT INHERITED AND AGE-RELATED MACULAR DEGENERATIONS” (priority 2021, published 2024).
No end group written: not given here.

Tests used:
Piezo1 [1] = molecular target: T1, Piezo1 (Homo sapiens, UniProt Q92508); assay: Piezo1 currents in whole cell-clamped primary RPE (patch-clamp/high-speed pressure clamp); format: cell-based; details: depletion of membrane cholesterol
T1 construct: Dissociated RPE cells from human donors were whole cell-clamped; endogenous in cells; host or cells: dissociated RPE cells from human donors
T1 sequence (Q92508 whole entry): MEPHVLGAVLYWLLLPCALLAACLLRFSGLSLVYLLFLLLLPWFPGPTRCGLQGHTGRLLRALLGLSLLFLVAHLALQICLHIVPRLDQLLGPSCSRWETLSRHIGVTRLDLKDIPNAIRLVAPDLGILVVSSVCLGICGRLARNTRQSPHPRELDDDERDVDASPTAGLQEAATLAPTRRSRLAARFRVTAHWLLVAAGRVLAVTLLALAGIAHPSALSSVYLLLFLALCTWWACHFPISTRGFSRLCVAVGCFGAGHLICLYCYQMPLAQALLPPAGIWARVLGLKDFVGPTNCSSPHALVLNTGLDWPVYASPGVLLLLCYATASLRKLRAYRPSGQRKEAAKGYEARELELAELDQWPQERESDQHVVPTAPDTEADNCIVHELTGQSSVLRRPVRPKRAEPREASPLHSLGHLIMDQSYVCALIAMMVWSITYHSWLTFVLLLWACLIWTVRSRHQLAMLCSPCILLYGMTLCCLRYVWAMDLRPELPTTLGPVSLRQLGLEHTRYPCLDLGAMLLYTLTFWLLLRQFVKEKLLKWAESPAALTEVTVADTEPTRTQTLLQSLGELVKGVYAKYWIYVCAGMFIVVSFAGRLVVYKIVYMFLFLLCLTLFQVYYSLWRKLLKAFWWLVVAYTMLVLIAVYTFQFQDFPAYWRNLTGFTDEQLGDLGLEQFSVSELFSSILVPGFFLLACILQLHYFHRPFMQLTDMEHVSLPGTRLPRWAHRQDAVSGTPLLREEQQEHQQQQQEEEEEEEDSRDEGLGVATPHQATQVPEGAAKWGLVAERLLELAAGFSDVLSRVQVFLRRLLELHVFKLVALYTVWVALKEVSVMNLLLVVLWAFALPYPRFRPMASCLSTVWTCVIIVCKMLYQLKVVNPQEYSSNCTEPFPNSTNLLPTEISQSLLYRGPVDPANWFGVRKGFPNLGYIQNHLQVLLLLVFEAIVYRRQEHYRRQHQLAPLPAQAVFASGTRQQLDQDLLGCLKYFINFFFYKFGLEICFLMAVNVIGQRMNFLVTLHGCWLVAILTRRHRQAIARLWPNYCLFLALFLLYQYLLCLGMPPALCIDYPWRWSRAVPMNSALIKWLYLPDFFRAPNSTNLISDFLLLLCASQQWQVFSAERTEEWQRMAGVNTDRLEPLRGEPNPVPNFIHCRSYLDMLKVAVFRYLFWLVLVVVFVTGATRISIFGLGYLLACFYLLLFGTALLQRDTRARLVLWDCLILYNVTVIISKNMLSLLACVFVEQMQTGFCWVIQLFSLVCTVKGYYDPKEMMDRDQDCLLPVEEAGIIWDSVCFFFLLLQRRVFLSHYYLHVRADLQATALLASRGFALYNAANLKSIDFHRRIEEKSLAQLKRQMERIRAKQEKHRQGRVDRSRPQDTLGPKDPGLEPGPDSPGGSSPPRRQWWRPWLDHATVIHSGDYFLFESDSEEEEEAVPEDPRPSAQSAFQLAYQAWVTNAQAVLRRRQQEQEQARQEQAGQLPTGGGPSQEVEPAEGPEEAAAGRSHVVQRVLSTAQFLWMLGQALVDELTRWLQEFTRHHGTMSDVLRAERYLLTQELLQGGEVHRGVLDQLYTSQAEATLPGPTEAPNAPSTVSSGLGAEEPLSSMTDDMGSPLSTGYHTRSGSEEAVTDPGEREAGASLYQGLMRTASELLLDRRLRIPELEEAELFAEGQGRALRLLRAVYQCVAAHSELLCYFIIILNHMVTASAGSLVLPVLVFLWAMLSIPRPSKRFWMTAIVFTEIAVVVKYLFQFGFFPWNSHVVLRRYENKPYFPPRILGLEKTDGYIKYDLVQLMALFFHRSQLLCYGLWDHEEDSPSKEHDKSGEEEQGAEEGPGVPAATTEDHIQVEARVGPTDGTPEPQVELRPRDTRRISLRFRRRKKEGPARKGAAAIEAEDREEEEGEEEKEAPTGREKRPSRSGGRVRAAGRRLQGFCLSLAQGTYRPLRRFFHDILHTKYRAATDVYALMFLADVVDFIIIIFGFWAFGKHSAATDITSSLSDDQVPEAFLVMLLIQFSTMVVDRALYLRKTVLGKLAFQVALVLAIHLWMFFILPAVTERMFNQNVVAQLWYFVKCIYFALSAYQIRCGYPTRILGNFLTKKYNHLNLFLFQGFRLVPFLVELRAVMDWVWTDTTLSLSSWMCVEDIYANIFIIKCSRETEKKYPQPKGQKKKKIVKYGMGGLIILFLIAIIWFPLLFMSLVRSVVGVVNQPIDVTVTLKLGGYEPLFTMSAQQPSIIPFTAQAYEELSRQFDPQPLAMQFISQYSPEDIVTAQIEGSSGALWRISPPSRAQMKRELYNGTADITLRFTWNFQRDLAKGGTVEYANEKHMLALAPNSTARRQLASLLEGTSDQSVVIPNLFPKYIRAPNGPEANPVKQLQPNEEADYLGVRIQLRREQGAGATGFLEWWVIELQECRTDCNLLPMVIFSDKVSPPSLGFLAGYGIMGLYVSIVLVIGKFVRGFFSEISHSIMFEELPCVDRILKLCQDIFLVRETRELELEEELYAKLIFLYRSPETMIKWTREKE
Text: FIGS. 3A-3D. Cholesterol and ceramide modulate Piezo1 activation in the RPE. 3A, Stills (at 130 sec and 300 sec) from Fluo4NW live imaging (green); 3B, quantification. In the results provided in FIGS. 3A and 3B, U18 increased cholesterol and ceramide. Mean±SEM, ** p<0.005, unpaired t-test. 3C, Representative traces of whole-cell currents in primary RPE recorded in a typical patch-clamp/HSPC experiment (40 mV holding potential, 25 mm Hg pressure step for 500 mSec). Black trace—control cells; red trace—RPE treated with b-cyclodextrin to deplete membrane cholesterol. 3D, Quantification of results in C. Mean±SEM, n=4 cells.
Electrophysiology. Dissociated RPE cells from human donors were whole cell-clamped. Steps of positive pressure (2-30 mm Hg) were applied through the patch pipette using high-speed pressure clamp (ALA Instruments) or the cells stimulated with msec indentations of a blunt pipette tip (Physik Instrumente) to evoke the mechanosensitive current. The Piezo1-dependent current was confirmed using GsMTx-4 (Lapajne et al., 2020).

Abca4−/− mice = assay: Nuclear H3K9me3 in RPE of Abca4−/− mice after drug administration; format: in vivo, mouse; details: 10 mg/kg i.p., three times/week for four weeks, compared to vehicle-treated mice
Protocol: (§1) FIGS. 7A-7B. 7A, 3D reconstruction from live imaging of mitochondrial volumes in mock transfected RPE transduced with mito-RFP, treated with A2E and exposed to 10% NHS to induce complement attack. RPE were treated with Simvastatin (5 μM, 16 h), T0901317 (1 μM, 16 h) or desipramine (10 μM, 3 h) prior to imaging. […] 7B, Quantification of fragmented mitochondria per cell from images in A. Mean±SEM, ***, p<0.0001, t-test. C, H3K9me3 (red) immunostaining in retinal cryosections from Abca4−/− mice treated with vehicle or […] desipramine i.p.
(§2) Mice. There are no mouse models that adequately reproduce AMD phenotypes. We therefore used models that best recapitulate the phenotype of interest. We used pigmented wild-type (129S1/SvlmJ) and Abca4^−/− mice (Jackson Labs) because we and others have reported that Abca4^−/− mice RPE show an age-dependent accumulation of cholesterol and ceramide (Kaur et al., 2018; Lenis et al., 2017; Tan et al., 2016; Toops et al., 2015), which are known to prolong Piezo1 activation (Ridone et al., 2020, Shi et al., 2020).
Antibodies. All antibodies used were validated for specificity using the relevant IgG controls, cell lysates lacking the antigen, or by blocking peptides. […]

RPE [2] = assay: Complement-mediated mitochondrial fragmentation in RPE (mito-RFP live imaging, A2E + 10% NHS); format: cell-based; details: A2E-treated RPE exposed to 10% NHS; Simvastatin 5 μM 16 h, T0901317 1 μM 16 h, desipramine 10 μM 3 h
Protocol: as §1

RPE [3] = details: cited from earlier work; for cholesterol and ceramide accumulation in RPE: Tan et al., 2016
[4] = test system: Abca4−/− mice RPE flatmounts; assay: Live imaging of calcium influx (Fluo-4 NW) in mouse RPE flatmounts; format: cell-based; details: preliminary live imaging
Text: as §2
(§3) Live imaging of mouse RPE flatmounts. Tissue from freshly harvested eyes will be mounted onto a Warner chamber in the presence of Fluorobrite DMEM (Gibco, A1896701) supplemented with 1% FBS (ATCC, 30-2020), 1% NEAA (Corning, 25025CI), and 4 mM L-glutamine (Gibco, 25030081) and imaged immediately using a 60× oil immersion objective (1.49 NA).
Live imaging of calcium influx. For live imaging of calcium influx, primary porcine RPE grown on Transwell filters±A2E or grown on silica beads, and mouse RPE flatmounts were loaded with Fluo-4 NW (Invitrogen, F36206) for 30 min according to manufacturer's protocol. […]

Piezo1 [5] = details: Xiao, 2020; read-out: EC50, potentiates Piezo1 mechanosensitivity and slows the inactivation kinetics; cited from earlier work
Piezo2 = details: specificity for Piezo1; cited from earlier work
[6] = test system: Abca4−/− mice RPE flatmounts; assay: Live imaging of actin (SiR-actin) in mouse RPE flatmounts; format: cell-based; details: freshly isolated Abca4−/− mice RPE flatmounts compared to age-matched wild types
Text: FIGS. 5A-5C. Validation of the Abca4−/− mouse model to study the role of Piezo1 in RPE dysfunction. 5A, H3K9me3 (red) immunostaining in 8-month-old wild type and Abca4−/− mouse RPE flatmounts. 5B, reconstruction of mitochondrial volumes from Tom20 staining in wild type and Abca4−/− mouse RPE flatmounts. Warmer colors indicate healthy mitochondria and cooler colors indicate fragmented mitochondria. 5C, Live imaging of mouse RPE flatmounts with FluoNW (green) and SiR-actin (red).
as §3
Live imaging of actin dynamics was performed using SiR-actin (1 μM, 30 min) and FLIPPER-TR plasma membrane probe in RPE with A2E or grown on silica beads±Yoda1±GsMTx-4

[7] = test system: polarized primary RPE cultures; assay: Live imaging of actin dynamics (SiR-actin) in polarized primary RPE cultures; format: cell-based, pig
Protocol: (§4) FIGS. 4A-4E. 4A, 3D reconstructions; 4B, quantitation of mitochondrial volumes from Tom20 staining in primary RPE cultures treated or not with Yoda1 and GsMTx-4. Warmer colors indicate healthy mitochondria and cooler colors indicate fragmented mitochondria. Mean±SEM; *** p<0.0001, unpaired t-test. 4C, H3K9me3 (red; merge with DAPI appears pink) immunostaining in primary RPE cultured on collagen or collagen with silica beads±GSMTx-4 (500 nM, 3 h). 4D, Actin labeling in live primary RPE cultures. Arrow heads: actin “knots” that indicate areas of actin polymerization prior to actomyosin contraction and cell extrusion. 4E, quantitation of actin staining intensity in primary RPE cultured on collagen or collagen with beads and treated with Yoda1 and/or GsMTx-4. Mean±SEM, *, p<0.05; *** p<0.001, unpaired t-test.
Primary adult RPE cultures. Polarized RPE monolayers from pig eyes were generated as described (Kaur et al., 2018; Tan et al., 2016; Toops et al., 2015; Toops et al., 2014). RPE on collagen-coated transwell filters form fully polarized monolayers within two weeks, develop trans-epithelial electrical resistances (TER) of ≥400 ohm·cm^2 and express RPE differentiation markers such as apical Na^+,K^+-ATPase and intracellular RPE65 (Toops et al., 2014). […]

primary polarized RPE [8] = assay: H3K9me3 immunostaining in primary polarized RPE; format: cell-based, pig; details: prolonged piezo1 activation
Protocol: as §4
(§5) Primary adult RPE cultures. Polarized RPE monolayers from pig eyes were generated as described (Kaur et al., 2018; Tan et al., 2016; Toops et al., 2015; Toops et al., 2014). RPE on collagen-coated transwell filters form fully polarized monolayers within two weeks, develop trans-epithelial electrical resistances (TER) of ≥400 ohm·cm^2 and express RPE differentiation markers such as apical Na^+,K^+-ATPase and intracellular RPE65 (Toops et al., 2014).
(§6) Drugs that modulate Piezo1 activity (Xiao, 2020). […]

primary polarized RPE [9] = assay: Mitochondrial volumes/fragmentation from Tom20 staining in primary RPE cultures; format: cell-based, pig
Protocol: as §4, §5, §6

primary porcine RPE = assay: Live imaging of calcium influx (Fluo-4 NW) in polarized primary RPE; format: cell-based, pig; details: for intracellular calcium spikes in RPE cultured on silica beads: RPE cultured on silica beads to simulate drusen; for cytosolic and nuclear calcium at baseline: RPE treated with stressor causing cholesterol and ceramide accumulation
Text: as §5
(§7) Intrinsic stressors to activate Piezo1. RPE monolayers were treated with the bisretinoid A2E to increase cholesterol and ceramide (Kaur et al., 2018; La Cunza et al., 2020; Tan et al., 2016; Toops et al., 2015), which act as intrinsic stressors that activate Piezo1.
Extrinsic stressors to activate Piezo1. To simulate drusen-mediated mechanical stress, cells were cultured on collagen-coated filters layered with 500 nm diameter monodisperse silica microspheres (Cospheric SiO2MS-2.0 0.507 μm) at a density of 40 beads/cm^2 in a collagen (10 μg/cm^2) matrix.
Drugs that modulate Piezo1 activity (Xiao, 2020). Yoda1 is a small molecule gating modifier that specifically potentiates Piezo1 mechanosensitivity and slows the inactivation kinetics with EC50 of ˜10-20 μM. It interacts with the […] domains of Piezo1 and thereby increases channel opening time. […] We treated primary RPE cultures for 6 hours with 10 μM Yoda1 (Sigma SML1558) for immunostaining/immunoblotting and biochemical experiments, or with 25 μM for 1-5 minutes for live imaging experiments. RPE cultures were treated with 500 nM GsMTx-4 (Tocris 4912100U) for 6 h.
High-speed live-cell imaging. The Nikon CSU-X1 dual camera platform spinning disk confocal microscopy system will be used for live imaging of primary RPE cultures and mouse RPE flatmounts. Images will be analyzed using Imaris (Bitplane) (Kaur et al., 2018; Tan et al., 2016; Toops et al., 2015). If necessary, Delta Vision OMX-SR (GE Healthcare Life Sciences) with 3D structured illumination microscopy (3D-SIM) and ring-TIRF capabilities at UCSF's Nikon Imaging Center will be used for super-resolution imaging.
Live imaging of calcium influx. For live imaging of calcium influx, primary porcine RPE grown on Transwell filters±A2E or grown on silica beads, and mouse RPE flatmounts were loaded with Fluo-4 NW (Invitrogen, F36206) for 30 min according to manufacturer's protocol. Excised Transwell filters or mouse RPE flatmounts were mounted onto a Warner chamber in the presence of Fluorobrite DMEM (Gibco, A1896701) supplemented with 1% FBS (ATCC, 30-2020), 1% NEAA (Corning, 25025CI), and 4 mM L-glutamine (Gibco, 25030081) and imaged using Nikon spinning disk confocal microscope with 60× oil immersion objective (1.49 NA). To increase or inhibit Piezo1 channel activity, Yoda1 (25 μM) or GsMTx-4 (5 μM) was added prior to live imaging. Apart from these drugs, preincubation with BAPTA-AM (Thermofisher) was used to determine the Ca^2+-dependence of nuclear and cytosolic signals.

Piezo1 [10] = molecular target: Piezo1 (Mus musculus, UniProt E2JF22); details: whole cell recordings as described in Bae et al., Biochemistry 50:6295-300, 2011; range printed with mixed units (nM to μM); read-out: Kd, reversible block of Piezo1 activation; cited from earlier work
Chain of Piezo1 (Mus musculus, UniProt E2JF22) (E2JF22 whole entry): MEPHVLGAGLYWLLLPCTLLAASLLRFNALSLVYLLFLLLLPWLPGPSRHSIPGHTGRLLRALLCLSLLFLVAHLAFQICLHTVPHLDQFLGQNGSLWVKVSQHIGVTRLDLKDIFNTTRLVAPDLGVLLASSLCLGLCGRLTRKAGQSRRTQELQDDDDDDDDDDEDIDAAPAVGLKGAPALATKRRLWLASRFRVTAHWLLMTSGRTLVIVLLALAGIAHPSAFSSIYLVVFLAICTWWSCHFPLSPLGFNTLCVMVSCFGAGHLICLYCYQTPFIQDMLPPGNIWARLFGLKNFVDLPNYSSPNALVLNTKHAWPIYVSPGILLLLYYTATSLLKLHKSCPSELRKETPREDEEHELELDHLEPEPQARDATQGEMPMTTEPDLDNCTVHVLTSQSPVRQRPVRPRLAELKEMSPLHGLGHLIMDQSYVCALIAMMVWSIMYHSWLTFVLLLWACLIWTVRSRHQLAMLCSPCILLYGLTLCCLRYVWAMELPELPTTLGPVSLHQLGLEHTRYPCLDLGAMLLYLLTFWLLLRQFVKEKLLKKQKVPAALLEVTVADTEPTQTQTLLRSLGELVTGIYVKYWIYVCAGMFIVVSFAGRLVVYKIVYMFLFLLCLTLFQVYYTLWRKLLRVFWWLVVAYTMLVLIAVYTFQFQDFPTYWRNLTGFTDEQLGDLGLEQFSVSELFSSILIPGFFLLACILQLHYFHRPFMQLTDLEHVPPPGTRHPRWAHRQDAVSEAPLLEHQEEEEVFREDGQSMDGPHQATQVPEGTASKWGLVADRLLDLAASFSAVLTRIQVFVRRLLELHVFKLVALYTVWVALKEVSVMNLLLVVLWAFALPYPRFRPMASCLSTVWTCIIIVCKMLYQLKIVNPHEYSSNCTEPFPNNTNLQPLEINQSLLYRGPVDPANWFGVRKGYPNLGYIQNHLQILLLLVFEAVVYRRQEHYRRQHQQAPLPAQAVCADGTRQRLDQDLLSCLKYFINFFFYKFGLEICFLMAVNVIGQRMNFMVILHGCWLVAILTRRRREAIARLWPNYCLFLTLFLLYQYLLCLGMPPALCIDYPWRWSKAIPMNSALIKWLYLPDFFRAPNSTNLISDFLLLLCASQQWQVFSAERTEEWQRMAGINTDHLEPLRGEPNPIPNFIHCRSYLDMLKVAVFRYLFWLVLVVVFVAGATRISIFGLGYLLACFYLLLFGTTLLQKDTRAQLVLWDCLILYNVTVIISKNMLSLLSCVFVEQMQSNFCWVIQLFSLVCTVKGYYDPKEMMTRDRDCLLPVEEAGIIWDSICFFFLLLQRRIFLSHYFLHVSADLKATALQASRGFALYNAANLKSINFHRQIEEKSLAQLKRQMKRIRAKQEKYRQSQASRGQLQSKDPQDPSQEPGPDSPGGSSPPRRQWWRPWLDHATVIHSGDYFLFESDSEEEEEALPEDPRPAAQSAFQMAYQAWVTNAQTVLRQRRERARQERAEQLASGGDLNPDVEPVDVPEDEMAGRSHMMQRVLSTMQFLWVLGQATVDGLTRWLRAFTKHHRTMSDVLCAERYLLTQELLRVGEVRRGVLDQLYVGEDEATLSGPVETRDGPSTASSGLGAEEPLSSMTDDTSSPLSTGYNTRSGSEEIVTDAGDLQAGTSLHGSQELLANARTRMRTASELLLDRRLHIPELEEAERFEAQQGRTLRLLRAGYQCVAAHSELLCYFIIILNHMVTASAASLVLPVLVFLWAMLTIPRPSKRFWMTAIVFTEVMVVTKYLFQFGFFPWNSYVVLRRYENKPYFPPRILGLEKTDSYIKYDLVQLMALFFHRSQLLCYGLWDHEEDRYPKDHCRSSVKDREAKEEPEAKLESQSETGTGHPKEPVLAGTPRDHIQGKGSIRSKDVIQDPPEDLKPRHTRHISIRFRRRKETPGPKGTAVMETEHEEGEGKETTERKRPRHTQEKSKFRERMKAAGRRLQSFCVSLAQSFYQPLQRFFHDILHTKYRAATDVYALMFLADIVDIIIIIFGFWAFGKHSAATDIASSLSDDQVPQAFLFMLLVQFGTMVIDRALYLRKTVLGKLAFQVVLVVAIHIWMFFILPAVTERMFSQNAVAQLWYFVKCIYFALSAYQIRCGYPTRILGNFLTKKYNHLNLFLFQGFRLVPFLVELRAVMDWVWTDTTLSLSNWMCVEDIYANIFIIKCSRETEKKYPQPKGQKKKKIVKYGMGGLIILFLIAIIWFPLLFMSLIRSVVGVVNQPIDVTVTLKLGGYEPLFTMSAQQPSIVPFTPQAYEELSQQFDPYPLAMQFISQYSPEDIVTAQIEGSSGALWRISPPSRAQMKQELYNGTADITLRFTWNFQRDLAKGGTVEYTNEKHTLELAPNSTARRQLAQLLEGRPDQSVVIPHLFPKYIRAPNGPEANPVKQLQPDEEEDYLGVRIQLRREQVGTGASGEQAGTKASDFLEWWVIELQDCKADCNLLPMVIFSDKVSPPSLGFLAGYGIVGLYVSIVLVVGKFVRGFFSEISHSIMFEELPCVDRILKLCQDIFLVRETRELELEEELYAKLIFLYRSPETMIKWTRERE

Piezo1 [11] = details: Suchyna, et al. Nature 430:235-240, 2004; cited from earlier work
RPE [12] = assay: Cholesterol and ceramide accumulation in the RPE; format: cell-based; details: FIGS. 3A and 3B
Protocol: as §7

[13] = in vitro and in vivo (Kaur et al., 2018; Tan et al., 2016; Toops et al., 2015)

Molecule: cyclodextrin
- peak current amplitudes of Piezo1 currents (Piezo1 [1]): drastically decreased

Molecule: CNCCCN1c2ccccc2CCc2ccccc21 [desipramine]
- nuclear H3K9me3 in the RPE (Abca4−/− mice): restored nuclear H3K9me3
- complement-mediated mitochondrial fragmentation in RPE (RPE [2]): protect
- lipofuscin-induced ceramide accumulation in the RPE (RPE [3]; [13]): decreased

Molecule: Clc1cccc(Cl)c1CSc1nnc(-c2cnccn2)s1 [Yoda1]
- calcium influx in freshly isolated RPE flatmounts [4]: increased calcium influx
- EC50 (Piezo1 [5]): 10 to 20 µM
- activation of Piezo2 (Piezo2): does not activate Piezo2
- actin intensity in RPE flatmounts [6]: increased actin intensity
- actin accumulation at cell-cell junctions [7]: caused rapid actin accumulation at cell-cell junctions
- nuclear H3K9me3 (primary polarized RPE [8]): loss of nuclear H3K9me3
- mitochondrial fragmentation (primary polarized RPE [9]): mitochondrial fragmentation
- calcium influx in the RPE (primary porcine RPE; 25 μM, 1 min, RPE on collagen, live imaging): induces a rapid nuclear calcium influx within seconds
- intracellular calcium spikes in RPE cultured on silica beads (primary porcine RPE): further potentiated

Molecule: CC1=C(/C=C/C(C)=C/C=C/C(C)=C/c2cc(/C=C/C=C(C)/C=C/C3=C(C)CCCC3(C)C)cc[n+]2CCO)C(C)(C)CCC1 [A2E]
- cholesterol and ceramide accumulation in RPE (RPE [3]): cause cholesterol and ceramide accumulation
- cytosolic and nuclear calcium at baseline (primary porcine RPE): prolonged cytosolic and nuclear calcium even at baseline

Molecule: GsMTx-4
- actin accumulation at cell-cell junctions [7]: prevented
- mitochondrial fragmentation (primary polarized RPE [9]): protected RPE mitochondria
- intracellular calcium spikes in RPE cultured on silica beads (primary porcine RPE): decreased
- Kd (Piezo1 [10]): 155 to 2000 nM

Molecule: O=S(=O)(c1ccccc1)N(CC(F)(F)F)c1ccc(C(O)(C(F)(F)F)C(F)(F)F)cc1 [T0901317]
- complement-mediated mitochondrial fragmentation in RPE (RPE [2]): protect
- lipofuscin-induced cholesterol accumulation in the RPE (RPE [3]; [13]): decreased

Molecule: GsMTx4-L: L enantiomeric form of GsMTx4 (GCLEFWWKCNPNDDKCCRPKLKCSKLFKLCNFSF; ends and bridges not checked; cysteine pairing not given here; UniProt Q7YT39 47-80, looked up)
- effectiveness at blocking Piezo1 activation, L- versus D-enantiomer (Piezo1 [11]): equally effective

Molecule: CCN(CC)CCO[C@H]1CC[C@@]2(C)C(=CC[C@@H]3[C@@H]2CC[C@]2(C)C(=O)CC[C@@H]32)C1 [U18666A]
- cholesterol and ceramide in RPE (RPE [12]): increased
- cholesterol and ceramide accumulation in RPE (RPE [3]): cause cholesterol and ceramide accumulation
- cytosolic and nuclear calcium at baseline (primary porcine RPE): prolonged cytosolic and nuclear calcium even at baseline
- calcium levels after Yoda1 treatment (primary porcine RPE; RPE+U18 versus control RPE, where they returned to baseline within minutes): remained high in all cellular compartments
